Each molecule was assayed against Btk (Homo sapiens (Human), UniProt Q06187) (assay: Btk in vitro inhibitory activity (one of Method A TR-FRET, Method B mobility shift, Method C radiometric filter binding)). Conditions: determined using one of the methods outlined in Example 36a, 36b and 36c.
Assay type: biochemical
Protocol: Btk kinase activity is determined using a time-resolved fluorescence resonance energy transfer (TR-FRET) methodology. Measurements are performed in a reaction volume of 50 μL using 96-well assay plates. […] The reaction is quenched by the addition of 1.2 equivalents of EDTA (relative to divalent cation) in 25 μL of 1× Lance buffer (Perkin-Elmer). […] The TR-FRET signal is measured on a multimode plate reader with an excitation wavelength (λEx) of 330 nm and detection wavelengths (λEm) of 615 and 665 nm. Activity is determined by the ratio of the fluorescence at 665 nm to that at 615 nm. For each compound, enzyme activity is measured at various concentrations of compound. Negative control reactions are performed in the absence of inhibitor in replicates of six, and two no-enzyme controls are used to determine baseline fluorescence levels Inhibition constants, Ki(app), ware obtained using the program BatchKi (Kuzmic et al. (2000), Anal. Biochem. 286:45-50). IC50s are obtained according to the equation: IC50={Ki(app)/(1+[ATP]/Km^ATP)}+[E]total/2;
Kinase activity is measured in vitro using electrophoretic mobility shift assay. The kinase reactions are assembled in a total volume of 25 μL in 384 well plates. […] The reaction is incubated for one hour and is quenched by the addition of 45 μL of termination buffer (100 mM HEPES, pH7.5, 0.01% Triton X-100, 30 mM EDTA). The terminated reactions are analyzed using 12 channel LabChip® 3000 microfluidic detection instrument (Caliper Life Sciences). […] Change in the relative fluorescence intensity of the substrate and product peaks is the parameter measured, reflecting enzyme activity. In the presence of an inhibitor, the ratio between product and substrate is altered: the signal of the product decreases, while the signal of the substrate increases.
Activity in each sample is determined as the product to sum ratio (PSR):P/(S+P), where P is the peak height of the product peptide and S is the peak height of the substrate peptide. For each compound, enzyme activity is measured at various concentrations (12 concentrations of compound spaced by 3× dilution intervals). Negative control samples (0%-inhibition in the absence of inhibitor) and positive control samples (100%-inhibition, in the presence of 20 mM EDTA) are assembled in replicates of four and are used to calculate %-inhibition values for each inhibitor at each concentration. Percent inhibition (Pinh) is determined using following equation: Pinh=(PSR0%−PSRinh)/(PSR0%−PSR100%)*100, where PSRinh is the product sum ratio in the presence of inhibitor, PSR0% is the average product sum ration in the absence of inhibitor and PSR100% is the average product sum ratio in 100%-inhibition control samples;
The IC50 values of inhibitors are determined by 4 parameter sigmoidal dose-response model fitting of the inhibition curves (Pinh versus inhibitor concentration) using XLfit 4 software.
IC50 values and curve fits were obtained using Prism (GraphPad Software).
The degree of Btk inhibition was determined using one of the methods outlined in Example 36a, 36b and 36c.

Btk, sequence (Q06187 whole entry): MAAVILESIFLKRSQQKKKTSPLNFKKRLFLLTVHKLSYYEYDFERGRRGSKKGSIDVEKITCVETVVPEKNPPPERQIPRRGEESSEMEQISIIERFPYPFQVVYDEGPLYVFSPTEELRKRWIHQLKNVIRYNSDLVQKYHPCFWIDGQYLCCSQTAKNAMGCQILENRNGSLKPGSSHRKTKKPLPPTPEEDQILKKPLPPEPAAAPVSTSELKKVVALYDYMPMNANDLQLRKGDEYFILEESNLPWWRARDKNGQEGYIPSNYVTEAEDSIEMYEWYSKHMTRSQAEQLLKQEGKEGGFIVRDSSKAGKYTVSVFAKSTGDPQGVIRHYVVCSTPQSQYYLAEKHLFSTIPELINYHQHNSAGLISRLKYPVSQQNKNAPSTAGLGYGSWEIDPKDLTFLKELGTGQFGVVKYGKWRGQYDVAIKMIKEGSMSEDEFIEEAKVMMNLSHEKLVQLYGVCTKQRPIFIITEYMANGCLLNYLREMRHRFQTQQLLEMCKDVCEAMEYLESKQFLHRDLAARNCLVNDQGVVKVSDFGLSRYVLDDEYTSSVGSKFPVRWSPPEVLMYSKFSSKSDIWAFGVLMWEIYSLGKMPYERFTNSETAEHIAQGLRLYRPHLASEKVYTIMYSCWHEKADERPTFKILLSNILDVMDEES

IC50, 100 to 1000 nM:
Cc1cc(NC(=O)c2ccc(-n3c(=O)n(-c4cccc(N(C)C(=O)/C=C/CN(C)C)c4)c4ncnc(N)c43)cc2)sn1 [Compound 25, (E)-4-(6-amino-9-(3-(4-(dimethylamino)-N-methylbut-2-enamido)phenyl)-8-oxo-8,9-dihydro-7H-purin-7-yl)-N-(3-methylisothiazol-5-yl)benzamide]
CN(C)C/C=C/C(=O)N(C)c1cccc(-n2c(=O)n(-c3ccc(OC4CC4)cc3)c3c(N)ncnc32)c1 [Compound 28, (E)-N-(3-(6-amino-7-(4-cyclopropoxyphenyl)-8-oxo-7H-purin-9(8H)-yl)phenyl)-4-(dimethylamino)-N-methylbut-2-enamide]
CN(C(=O)CC#N)c1cccc(-n2c(=O)n(-c3ccc(Oc4ccccc4)cc3)c3c(N)ncnc32)c1 [Compound 33, N-(3-(6-amino-8-oxo-7-(4-phenoxyphenyl)-7H-purin-9(8H)-yl)phenyl)-2-cyano-N-methylacetamide]
CN(C(=O)C1(C#N)CC1)c1cccc(-n2c(=O)n(-c3ccc(Oc4ccccc4)cc3)c3c(N)ncnc32)c1 [Compound 34, N-(3-(6-amino-8-oxo-7-(4-phenoxyphenyl)-7H-purin-9(8H)-yl)phenyl)-1-cyano-N-methylcyclopropanecarboxamide]

IC50, < 100 nM:
CN(C)C/C=C/C(=O)N(C)c1cccc(-n2c(=O)n(-c3ccc(C(=O)c4ccccc4)cc3)c3c(N)ncnc32)c1 [Compound 26, (E)-N-(3-(6-amino-7-(4-benzoylphenyl)-8-oxo-7H-purin-9(8H)-yl)phenyl)-4-(dimethylamino)-N-methylbut-2-enamide]
CN(C(=O)/C=C/CN(C)C1CC1)c1cccc(-n2c(=O)n(-c3ccc(C(=O)c4ccccc4)cc3)c3c(N)ncnc32)c1 [Compound 27, (E)-N-(3-(6-amino-7-(4-benzoylphenyl)-8-oxo-7H-purin-9(8H)-yl)phenyl)-4-(cyclopropyl(methyl)amino)-N-methylbut-2-enamide]
C=CC(=O)N(C)c1cccc(-n2c(=O)n(-c3ccc(C(=O)Nc4ccccn4)cc3)c3c(N)ncnc32)c1 [Compound 29, 4-(6-amino-9-(3-(N-methylacrylamido)phenyl)-8-oxo-8,9-dihydro-7H-purin-7-yl)-N-(pyridin-2-yl)benzamide]
C=CC(=O)N(C)c1cccc(-n2c(=O)n(-c3ccc(OC4CC4)cc3)c3c(N)ncnc32)c1 [Compound 30, N-(3-(6-amino-7-(4-cyclopropoxyphenyl)-8-oxo-7H-purin-9(8H)-yl)phenyl)-N-methylacrylamide]
CNC(=O)/C(C#N)=C/c1cccc(-n2c(=O)n(-c3ccc(Oc4ccccc4)cc3)c3c(N)ncnc32)c1 [Compound 44, (E)-3-(3-(6-amino-8-oxo-7-(4-phenoxyphenyl)-7H-purin-9(8H)-yl)phenyl)-2-cyano-N-methylacrylamide]
CN(C(=O)/C=C/CN(C)C1CC1)c1cccc(-n2c(=O)n(-c3ccc(Oc4ccccc4)nc3)c3c(N)ncnc32)c1 [Compound 49, (E)-N-(3-(6-amino-8-oxo-7-(6-phenoxypyridin-3-yl)-7H-purin-9(8H)-yl)phenyl)-4-(cyclopropyl(methyl)amino)-N-methylbut-2-enamide]
CN(C(=O)/C=C/CN1CCOCC1)c1cccc(-n2c(=O)n(-c3ccc(Oc4ccccc4)cc3)c3c(N)ncnc32)c1 [Compound 51, (E)-N-(3-(6-amino-8-oxo-7-(4-phenoxyphenyl)-7H-purin-9(8H)-yl)phenyl)-N-methyl-4-morpholinobut-2-enamide]
CN(C(=O)/C=C/CN1CCCC1)c1cccc(-n2c(=O)n(-c3ccc(Oc4ccccc4)cc3)c3c(N)ncnc32)c1 [Compound 52, (E)-N-(3-(6-amino-8-oxo-7-(4-phenoxyphenyl)-7H-purin-9(8H)-yl)phenyl)-N-methyl-4-(pyrrolidin-1-yl)but-2-enamide]
CN(C(=O)/C=C/CN(C)C1CC1)c1cccc(-n2c(=O)n(-c3ccc(Oc4ccccc4)cn3)c3c(N)ncnc32)c1 [Compound 58, (E)-N-(3-(6-amino-8-oxo-7-(5-phenoxypyridin-2-yl)-7H-purin-9(8H)-yl)phenyl)-4-(cyclopropyl(methyl)amino)-N-methylbut-2-enamide]
CN(C(=O)/C=C/CN(C)C1CC1)c1cccc(-n2c(=O)n(-c3ccc(Oc4ccccn4)cc3)c3c(N)ncnc32)c1 [Compound 63, (E)-N-(3-(6-amino-8-oxo-7-(4-(pyridin-2-yloxy)phenyl)-7H-purin-9(8H)-yl)phenyl)-4-(cyclopropyl(methyl)amino)-N-methylbut-2-enamide]
CN(C(=O)/C=C/CN(C)C1CC1)c1cccc(-n2c(=O)n(-c3ncc(Oc4ccccc4)cn3)c3c(N)ncnc32)c1 [Compound 69, (E)-N-(3-(6-amino-8-oxo-7-(5-phenoxypyrimidin-2-yl)-7H-purin-9(8H)-yl)phenyl)-4-(cyclopropyl(methyl)amino)-N-methylbut-2-enamide]
